Results: PubChem BioAssay AID1196 (NMMLSC, 2008)
Activity calls are given as the source filed them. The rule behind the calls is not given here.

The compounds below were run on prostate cell differentiation activation, dose response (assay: prostate cell differentiation inducers, concentration series – secondary assay, dose response (AID 1196)).

| SMILES | EC50 |
| --- | --- |
| Cn1c(C(=O)NCCCN2CCN(c3cccc(Cl)c3)CC2)cc2c(=O)n(C)c3ccccc3c21 | 11.1 µM (inactive) |
| COc1ccc(-c2ccc(-c3noc(-c4ccccc4)n3)c(OC)n2)cc1 | 8.46 µM |
| CCn1c(=O)cc(SCC(=O)NCCCN2CCN(c3ccccc3F)CC2)c2ccccc21 | 9.05 µM |
| COc1ccc(CCn2c(=N)c(C(=O)NCc3ccco3)cc3c(=O)n4ccccc4nc32)cc1 | 29.2 µM (inactive) |
| CCN1CCN(c2ncc(C(=O)Nc3cc(Cl)c(OC)cc3OC)c3ccccc23)CC1 | 5.27 µM |
| COc1cc2nc(N3CCN(C(=O)C4COc5ccccc5O4)CC3)nc(N)c2cc1OC (stereo not given) | 8.34 µM |
| CCCN(CCC)CCNC(=O)C1CCN(Cc2nc(-c3ccc(Cl)cc3)oc2C)CC1 | 6.5 µM |
| Cc1oc(-c2ccc(Cl)cc2)nc1CN1CCC(C(=O)NCCCN2CCOCC2)CC1 | 3.44 µM |
| Cc1ccc2c(c1)-c1c(cnn1CC(=O)Nc1ccccc1N1CCN(C)CC1)CO2 | 6.04 µM |
| CCOc1ccccc1NC(=O)c1nc[nH]c1C(=O)Nc1ccccc1OCC | 8.92 µM |
| CN(C)c1ccc(CNC2CC(C)(C)NC(C)(C)C2)cc1 | 5.53 µM |
| CCn1c(=O)cc(SCC(=O)NCCN2CCN(Cc3ccccc3)CC2)c2ccccc21 | 20.4 µM (inactive) |
| CCN(CC)CCNC(=O)c1ccc(N2CCCCC2)c(NS(=O)(=O)c2ccc(C)cc2)c1 | 5.88 µM |
| Cn1nc(-c2ccc(Cl)cc2)c2cc(C(=O)NCCCN3CCOCC3)sc21 | 5.34 µM |
| COc1ccc2cc3cc(C(=O)Nc4ccccc4N4CCN(C)CC4)oc3nc2c1 | 3.87 µM |
| CCN1CCN(C(c2cccs2)C(C)NS(=O)(=O)c2ccc(Br)cc2)CC1 (stereo not given) | 16.8 µM (inactive) |
| CCN1CCN(c2cc(C)c3cc(NC(=O)c4ccc(Br)o4)ccc3n2)CC1 | 3.37 µM |
| Cc1ccccc1-c1nc(CN2CCC(C(=O)NCc3cccnc3)CC2)c(C)o1 | 12.5 µM (inactive) |
| CCN1CCN(CCNC(=O)C2CCN(Cc3nc(-c4ccc(Cl)cc4)oc3C)CC2)CC1 | 6.46 µM |
| O=C(NCCCN1CCN(c2cccc(Cl)c2)CC1)c1cccc(N2CCCC2=O)c1 | 17.1 µM (inactive) |
| Cc1ccccc1-c1nc(CN2CCC(C(=O)NCCCN3CCOCC3)CC2)c(C)o1 | 5.47 µM |
| Cc1ccccc1-c1nc(CN2CCCC(C(=O)NCCCN3CCOCC3)C2)c(C)o1 (stereo not given) | 11.7 µM (inactive) |
| Cn1c(=O)cc(OCC(=O)NCCCN2CCN(c3ccccc3F)CC2)c2ccccc21 | 27.8 µM (inactive) |
| CC1CCCCN1CCNC(=O)c1ccc2c(=O)n(CCc3ccccc3)c(=O)[nH]c2c1 (stereo not given) | 16.2 µM (inactive) |
| Cn1c(=O)cc(SCC(=O)NCCCN2CCN(c3ccccc3F)CC2)c2ccccc21 | 9.37 µM |
| COc1ccc(-c2noc(-c3cc(Cl)ccc3Cl)n2)cc1OC | 10.3 µM (inactive) |
| Cc1ccccc1CS(=O)(=O)CCC(=O)NCCCN1CCN(c2ccccc2F)CC1 | 7.46 µM |

The remaining compounds from weak to strong by EC50, led by results:

| EC50 | SMILES |
| --- | --- |
| 3.03 µM | CCOc1cccc2cc(-c3cn4cc(C)ccc4n3)c(=O)oc12 |
| 2.89 µM | COc1ccc(Nc2nc(N)nc(CN3CCC(Cc4ccccc4)CC3)n2)cc1 |
| 2.85 µM | CCN(CC)CCCNC(=O)c1cc2c(-c3ccc(Cl)cc3)nn(C)c2s1 |
| 2.68 µM | Cc1ccc(C)c(N2CCN(CCCNC(=O)Cn3cc4c(n3)CCCCC4)CC2)c1 |
| 2.67 µM | COc1ccccc1NC(=O)c1nc[nH]c1C(=O)Nc1ccccc1OC |
| 2.48 µM | CCN(CC)CCNC(=O)c1cc2c(-c3ccc(Cl)cc3)nn(C)c2s1 |
| 2.21 µM | N=c1n(CCN2CCCCC2)c2ccccc2n1CC(O)COc1ccccc1 (stereo not given) |
| 2.21 µM | Cc1cc(N2CCN(C)CC2)nc2ccc(NC(=O)c3ccc(Br)o3)cc12 |
| 1.81 µM | Cc1oc(-c2ccc(Cl)cc2)nc1CN1CCC(C(=O)N2CCN(Cc3ccccc3)CC2)CC1 |
| 1.51 µM | CCN1CCCC1CNC(=O)c1cc2c(-c3ccc(Cl)cc3)nn(C)c2s1 (stereo not given) |
| 1.47 µM | Cc1ccc(OCC(O)Cn2c(=N)n(CCN3CCCCC3)c3ccccc32)cc1 (stereo not given) |
| 1.46 µM | CN(C)CCCN1c2ccccc2CCc2ccc(Cl)cc21 |
| 1.27 µM | Cc1ccccc1-c1nc(CN2CCC(C(=O)NCCCN3CC(C)CC(C)C3)CC2)c(C)o1 (stereo not given) |
| 1.16 µM | CCN1CCCC1CNC(=O)C1CCN(Cc2nc(-c3cccc(Br)c3)oc2C)CC1 (stereo not given) |
| 0.277 µM | CCOc1ccc(NC(=O)COc2nsnc2N2CCCCC2)cc1 |
| 0.239 µM | CCCOc1ccccc1C1CC(=O)Nc2cc3c(cc21)OCO3 (stereo not given) |
| 0.218 µM | CCOC(=O)c1ccccc1NC(=O)Cn1c(-c2nonc2N)nc2ccccc21 |
| 0.0873 µM | Cc1ccc(Nc2cc(=O)n(C3CCCCC3)c(=O)[nH]2)cc1C |
